Consider four compounds from BindingDB's records for doi:10.1021/jm00085a017 (Institute of Research, 1992).

The nature of the assay: Inhibition of the release of Alpha-amylase from rat pancreatic acinar cells.
The term IC50 denotes the concentration that gives 50% inhibition. A lower IC50 goes with inhibition by little substance. The compound `CCN(CC)CCCCCOC(=O)C(C)(c1ccccc1)C1CCCCC1` (centres undefined) showed an IC50 of 2700 nM.

In the case of `CN(C)CCCOC(=O)C(C)(c1ccccc1)C1CCCCC1` (centres undefined), half-maximal inhibition (IC50) was put at 10 nM. `CCN(CC)CCCOC(=O)C(C)(c1ccccc1)C1CCCCC1` (centres undefined): half-maximal inhibition (IC50) was put at 21 nM.

Turning to `CCN(CC)CCOC(=O)C(C)(c1ccccc1)C1CCCCC1` (centres undefined), the IC50 came out at 52 nM.
